Reference: US9969695B2, “N-substituted imidazole carboxylic ester chiral compound containing an ether side chain, its preparation and application” (WEST CHINA HOSPITAL, SICHUAN UNIVERSITY, priority 2013, dated 2018)
“And” between values parts separate entries of the source, which are not always exact repeats. Equal values may be shown once. Where a name gives a salt, the structure may show the parent alone. Read-outs that look alike come from different tables or passages of the source.

What was measured:
Format in all cases: in vivo
Male SD rats [1] = experiment: Onset time, last time, palinesthesia time and adverse effects at 2ED50 via the rat tail vein; details: for Incidence of adverse effect: Anal sphincter dilatation / Incidence of adverse effect: Bucking / Incidence of adverse effect: Hindlimb stiffness / Incidence of adverse effect: Muscle tremor / Incidence of adverse effect: Tic of limbs / Incidence of adverse effect: Vomiting / Onset time: 10 rats per group; for Last time: disappearance to recovery of body-righting reflex; for Palinesthesia tune / Palinesthesia time: recovery to full recovery of body-righting reflex
Description: (§1) Male SD rats (250˜300 g) were used as an experimental animal, and 50% effective dose (ED50) was determined by the sequential method. Three compounds were dissolved in a solvent of DMSO, and etomidate was used as the commercially-available formulation (B BRAUN, Etomidate-Lipuro®, 20 mg/10 mL). Based on the initial dose of 1 mg/kg, other dosages were adjusted as the ratio of 0.8, and the ED50 values of the three compounds and etomidate were determined. Extinction time ≥30 s for the rat body-righting reflex was the positive marker while no disappearance of the righting reflex was considered invalid. Based on the experimental results, four cross-points were formed, and the ED50 values were calculated. […] Then, the respective 2ED50 values of the three compounds and etomidate were taken in an equivalent dose, which were administered via the rat tail vein. The preliminary effects were evaluated in the four rat groups, which were given the three compounds of Formulas (I), (IV), (V) and etomidate, respectively, with 10 rats in each group. […] The last time of the Formula (I) compound and etomidate was 5-6 min, but the last time of the Formulas (IV) and (V) compounds was 10-20 min. […] DMSO had no pharmacological effects, and no adverse effects were observed. The onset time, the last time, and the adverse effects (types, incidence rates) induced by the three compounds and etomidate are shown in the following table:
(§2) Male SD rats (250˜300 g) were used as an experimental animal, and 50% effective dose (ED50) was determined by the sequential method. Hydrochlorides of the three compounds were dissolved in the solvent of normal saline, and etomidate was used as the commercially-available formulation (B BRAUN, Etomidate-Lipuro®, 20 mg/10 mL). The initial dose was 1 mg/kg, and the ratio of dosage variation was 0.8, which was applied in the determination of ED50 values of Formula (I) hydrochloride, Formula (I) hydrobromide, Formula (I) trifluoroacetate, and etomidate. Extinction time (≥30 s) of the rat body-righting reflex was the positive marker while no disappearance of the reflex was considered invalid. Based on the experimental results, four cross-points were formed, and then ED50 values were calculated. […] Then, the respective 2ED50 values of the three compounds and etomidate were taken in an equivalent dose, which were administered via the rat tail vein. The preliminary effects were evaluated in the four rat groups, which were given the three compounds of Formulas (I) hydrochloride, Formula (I) hydrobromide, Formula (I) trifluoroacetate, and etomidate, respectively, with 10 rats in each group. […] Palinesthesia time was in arrange of 5-10 min. During the test period, no significant difference was found in the types and the incidence rates of adverse effects in each group. DMSO had no pharmacological effects, and no adverse effect was found. The onset time, the last time, and the types and the incidence rates of adverse effects induced by the three salt compounds and etomidate are shown in the following table: […]

Male SD rats [2] = experiment: ED50 by the sequential method, extinction of rat body-righting reflex; details: etomidate as Etomidate-Lipuro, extinction of body-righting reflex ≥30 s; for ED50: Rattus norvegicus, read-out: 50% effective dose (ED50)
Description: as §1, §2

[3] = test system: self-synthesis of adrenocortical hormone; experiment: Increase degree of cortical hormone (cortisol, corticosterone) in blood serum after ACTH stimulation, ELISA; details: Beagle dogs; for Increase degree of corticosterone / Increase degree of cortisol: 2ED50, dexamethasone baseline, 1 h after ACTH
Description: Male Beagle dogs (10±2 kg) were selected as an experimental animal. After administration, the contents of corticosterone and cortisol in the blood serum of the Beagle dogs were determined by the ELISA kit and the enzyme-labelled instrument. The 20 Beagle dogs were divided into five groups, with four dogs in each group. After respective administration of dexamethasone (0.01 mg/kg), the level of adrenal cortex in the dog body was lowered to the baseline, and those levels of corticosterone and cortisol at this time were used as the base value (baseline). […] After 10 min, ACTH (adrenocortical hormone) was given to stimulate and cause an increased level of cortex in the dog body. One hour after administration of ACTH, both corticosterone and cortisol levels in the blood serum of the Beagle dogs were determined, and the ratio of the peak value to the base value of the cortex levels was calculated. This ratio indicated the increase degree of the cortical hormone. A greater degree indicated a less inhibitory effect of the medicine on the cortical hormone. After administration, compounds of Formulas (I), (IV) and (V), DMSO, and the increase degree of the cortical hormone followed by stimulation of ACTH are shown in the following table:
Male Beagle dogs (10±2 kg) were selected as an experimental animal. After administration, the contents of corticosterone and cortisol in the blood serum of the Beagle dogs were determined by the ELISA kit and the enzyme-labelled instrument. The 20 Beagle dogs were divided into five groups, with four dogs in each group. After respective administration of dexamethasone (0.01 mg/kg), the level of adrenal cortex in the dog body was lowered to the baseline, and the levels of corticosterone and cortisol at this time were used as the baseline. Then, the equivalent doses (2ED50) of the compounds of Formula (I) hydrochloride (3.62 mg/kg), hydrobromide (3.86 mg/kg), trifluoroacetate (4.66 mg/kg), the positive control medicine Etomidate-Lipuro® (0.9 mg/kg), and the equal-volume of solvent DMSO were respectively administrated into the dogs of the five groups. After 10 min, ACTH was given to stimulate and cause the cortex levels increase in the dog body. One hour after administration of ACTH, both the cortical hormone levels were determined, and the ratio of the peak value to the baseline of cortex levels was calculated. This ratio indicated the increase degree of the cortical hormone. A greater degree of increase indicated a less inhibitory effect of the medicine on the cortical hormone. After administrations, the three salts of the Formula (I) compound, DMSO, the increase degree of the cortical hormone followed by stimulation of ACTH are shown in the following table: […]

[4] = Example 10, ratio of peak value to base value
[5] = Example 9, 2ED50 via tail vein, listed as Formula (I) hydrobromide
[6] = Example 11, ratio of peak value to baseline
[7] = Example 9, 2ED50 via tail vein, listed as Formula (I) hydrochloride

Row | SMILES | sedative-hypnotic and general anesthetic effects (conclusion in words) (Male SD rats [1]; Example 8) | types and incidence rates of the adverse effects (in words) (Male SD rats [1]; Example 8, 2ED50 via tail vein) | Incidence of adverse effect: Anal sphincter dilatation (Male SD rats [1]; Example 8, 2ED50 via tail vein) | Incidence of adverse effect: Bucking (Male SD rats [1]; Example 8, 2ED50 via tail vein) | Incidence of adverse effect: Hindlimb stiffness (Male SD rats [1]; Example 8, 2ED50 via tail vein) | Incidence of adverse effect: Muscle tremor (Male SD rats [1]; Example 8, 2ED50 via tail vein) | Incidence of adverse effect: Tic of limbs (Male SD rats [1]; Example 8, 2ED50 via tail vein) | Incidence of adverse effect: Vomiting (Male SD rats [1]; Example 8, 2ED50 via tail vein) | Onset time (Male SD rats [1]; Example 8, 2ED50 via tail vein) | Last time (Male SD rats [1]; Example 8, 2ED50 via tail vein) [min] | Palinesthesia tune (Male SD rats [1]; Example 8, 2ED50 via tail vein) [min] | ED50 (Male SD rats [2]; Example 8, compounds in DMSO) [mg/kg] | Increase degree of corticosterone [3, 4] | Increase degree of cortisol [3, 4] | sedative-hypnotic and general anesthetic effects (conclusion in words) (Male SD rats [1]; Example 9) | Incidence of adverse effect: Muscle tremor (Male SD rats [1]; Example 9, 2ED50 via tail vein) [%] | Onset time (Male SD rats [1]; Example 9, 2ED50 via tail vein) | Last time (Male SD rats [1]; Example 9, 2ED50 via tail vein) [min] | Palinesthesia time (Male SD rats [1]; Example 9, 2ED50 via tail vein) [min] | cortical hormone increase after stimulation by ACTH (conclusion in words) ([3]; Example 11) | further results
1 | COCCOC(=O)c1cncn1C(C)c1ccccc1 (racemic) [Compound V] | lower potency, elongated onset time, extended last time, and increased types and incidence rates of adverse effects | obviously increased | (2/10), 20%; | Bucking (4/10), 40% | 20%; | 60%; | Tic of limbs (5/10), 50%; | Vomiting (5/10), 50%; | a little slower action and 1.0 ± 0.6 min | 10.8 ± 3.5 | 15.1 ± 2.6 | 10.4 | 3.18 ± 1.15 | 5.17 ± 2.28 |  |  |  |  |  |  | 
2 | COCCOC(=O)c1cncn1[C@@H](C)c1ccccc1 [Compound IV] | lower potency, elongated onset time, extended last time, and increased types and incidence rates of adverse effects | obviously increased | (5/10), 50%; | Bucking (6/10), 60% | 50%; | 100%; | Tic of limbs (7/10), 70%; | Vomiting (7/10), 70%; | 2.2 ± 0.8 min | 20.3 ± 4.6 | 21.4 ± 2.3 | 7.46 | 1.19 ± 0.87 | 3.32 ± 2.36 |  |  |  |  |  |  | Onset time (Male SD rats [1]; Example 8, 2ED50 via tail vein, listed as Formula (IV)): a little slower action
3 | COCCOC(=O)c1cncn1[C@H](C)c1ccccc1 [Compound I] | good sedative-hypnotic and general anesthetic effects |  |  |  |  | 70% |  |  | Immediate | 5.8 ± 0.9 | 4.8 ± 1.3 | 2.1 | 11.46 ± 4.30 | 19.88 ± 19.8 |  |  |  |  |  |  | Onset time (Male SD rats [1]; Example 8, 2ED50 via tail vein, listed as Formula (I) compound): immediate action; inhibition on cortical hormone (conclusion in words) ([3]; Example 10, after stimulation by ACTH): obviously reduced when compared with that of the control medicine etomidate
4 | COCCOC(=O)c1cncn1[C@H](C)c1ccccc1 [Hydrobromide of Formula (I) compound] |  |  |  |  |  |  |  |  |  |  |  |  |  |  | good sedative-hypnotic and general anesthetic effects | 50 | Immediate | 4.6 ± 1.1 | 5.8 ± 1.2 | lower than that in the blank group of the dogs, but obviously higher than that in the positive medicine etomidate group of the dogs | Onset time (Male SD rats [1]; [5]): immediate action; Last time (Male SD rats [1]; [5]): 5 to 6 min; 50% effective dose (ED50) (Male SD rats [2]; Example 9, salts in normal saline, listed as Formula (I) hydrobromide): 3.09 mg/kg; Increase degree of corticosterone [3, 6]: 12.36 ± 6.65; Increase degree of cortisol [3, 6]: 29.14 ± 11.86
5 | COCCOC(=O)c1cncn1[C@H](C)c1ccccc1 [Hydrochloride of Formula (I) compound] |  |  |  |  |  |  |  |  |  |  |  |  |  |  | good sedative-hypnotic and general anesthetic effects | 60 | Immediate | 5.8 ± 0.7 | 5.6 ± 1.8 | lower than that in the blank group of the dogs, but obviously higher than that in the positive medicine etomidate group of the dogs | Onset time (Male SD rats [1]; [7]): immediate action; Last time (Male SD rats [1]; [7]): 5 to 7 min; ED50 (Male SD rats [2]; Example 9, salts in normal saline): 2.58 mg/kg; Increase degree of corticosterone [3, 6]: 18.14 ± 5.66; Increase degree of cortisol [3, 6]: 25.36 ± 14.77
